Experimental data reported in patent US20260256789A1, “METHODS FOR TREATMENT OF CANCER” (Frontier Medicines Corporation, priority 2022, published 2026).

Target: T1, KRAS G12C (GMPPNP-loaded) and cRAF Ras-binding domain (Homo sapiens, UniProt P01116, C118S/C51S/C80L/G12C)
T1 construct: truncated version comprising amino acids 1-169
Assay: Inhibition of KRAS G12C and cRAF binding (AlphaScreen)
Settings: KRAS G12C preloaded with GTP analogue GMPPNP, 2 hours preincubation
Source text: The ability of compounds of Formula (A), Formula (B) and Formula (C), and pharmaceutically acceptable salts and/or isotopologues thereof, to inhibit activity of the GTP-bound form of KRAS G12C can be tested using methods such as the in vitro assay described in Example 179 below. Example 179 describes determining, for various compounds, the half-maximal inhibition (IC50) of KRAS G12C loaded with GTP analogue GMPPNP from binding to cRaf, as the Ras-binding domain (RBD). Example 180 describes determining, for various compounds, the half-maximal inhibition (IC50) of KRAS G12C loaded with GTP analogue GMPPNP from binding to PI3Kα, as the Ras-binding domain (RBD). Example 181 describes testing compounds for the ability to inhibit cell viability in MCF10A G12C/A59G mutant, which abrogates GTPase activity, thus preventing hydrolysis of GTP to GDP.
The AlphaScreen technology was used to determine IC50s for compound inhibition of KRAS G12C (present as the Cys-light (C51S, C80L and C118S), truncated version comprising amino acids 1-169) and cRAF interaction. Compounds were diluted in 100% DMSO and each compound concentration was spotted at 200 nl/well onto low volume, white 384 well plates. The KRAS G12C contained a biotin-AviTag and the cRaf, as Ras-binding domain (amino acids 50-131, RBD), was GST-tagged. KRAS G12C was preloaded with the GTP analogue Guanosine 5′-[β,γ-imido]triphosphate (GMPPNP). The KRAS G12C was diluted in 25 mM Hepes, pH 7.4, 150 mM NaCl, 5 mM MgCl2, 0.01% TritonX-100 and 10 μM GMPPNP and added at 10 ul/well to compound-spotted plates resulting in a DMSO concentration of 2%. Plates were incubated for 2 hours. A mixture of RBD and the AlphaScreen streptavidin donor and glutathione acceptor beads diluted in 25 mM Hepes, pH 7.4, 150 mM NaCl, 5 mM MgCl2, 0.01% TritonX-100 and 2% DMSO was then added at 10 ul/well and incubated for 60-90 minutes before the samples were read for emission at 570 nm after excitation of the donor beads at 680 nm. All incubations were performed at room temperature. The final top compound concentration was 50 μM with 1:3 titrations for 10-point dose response curves. Final assay conditions were 0.5 nM KRAS G12C, 0.75 nM RBD and 5 μg/ml each of AlphaScreen donor and acceptor beads. IC50s were determined using nonlinear regression fit of [inhibitor] vs. response (4 parameters). […]

T1 sequence (P01116 1-169 isoform P01116-2 G12C/C51S/C80L/C118S): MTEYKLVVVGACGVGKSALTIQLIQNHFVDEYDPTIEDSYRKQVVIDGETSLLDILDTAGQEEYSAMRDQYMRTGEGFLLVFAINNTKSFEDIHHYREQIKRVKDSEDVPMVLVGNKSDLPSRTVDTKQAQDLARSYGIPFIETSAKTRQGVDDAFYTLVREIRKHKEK

SMILES	IC50
C=CC(=O)N1CC(CN(C)c2nc(OC[C@@]34CCCN3C[C@H](F)C4)nc3c2CC(C)C(c2nc(N)cc(C)c2C(F)(F)F)C3)C1 (stereo partly drawn) [Example 67, 1-(3-(((7-(6-amino-4-methyl-3-(trifluoromethyl)pyridin-2-yl)-2-(((2R,7aS)-2-fluorohexahydro-1H-pyrrolizin-7a-yl)methoxy)-6-methyl-5,6,7,8-tetrahydroquinazolin-4-yl)(methyl)amino)methyl)azetidin-1-yl)prop-2-en-1-one]	≥ 500 nM
Cc1cc(N)nc(-c2ncc3c(N(C)CC4CN(C(=O)/C=C/c5nc(C(C)C)no5)C4)nc(OC[C@@]45CCCN4C[C@H](F)C5)nc3c2F)c1C(F)(F)F [Example 154]	10 to 100 nM
C=CC(=O)N1CC[C@@H](N(C)c2nc(OC[C@@]34CCCN3C[C@H](F)C4)nc3c(F)c(-c4ccccc4OC(F)F)ncc23)C1 [Example 182]	≥ 500 nM
C=CC(=O)N1CC[C@@H](N(C)c2nc(OC[C@@]34CCCN3C[C@H](F)C4)nc3c(F)c(-c4cc(F)cnc4C4CC4)ncc23)C1 [Example 259]	≥ 500 nM
Cc1cc(N)nc(-c2ncc3c(N(C)[C@@H]4CCN(C#N)C4)nc(OC[C@@]45CCCN4C[C@H](F)C5)nc3c2F)c1C(F)(F)F [Example 239]	< 10 nM
C=CC(=O)N1CC[C@@H](N(C)c2nc(OC[C@@]34CCCN3C[C@H](F)C4)nc3c(F)c(-c4cccc(Cl)c4C(F)(F)F)ncc23)[C@H]1C (single isomer, unassigned) [Example 78]	10 to 100 nM
Cc1nsc(/C=C/C(=O)N2CC[C@@H](N(C)c3nc(OC[C@@]45CCCN4C[C@H](F)C5)nc4c(F)c(-c5nc(N)cc(C)c5C(F)(F)F)ncc34)C2)n1 [Example 164]	10 to 100 nM
C=CC(=O)N1CC(CN(C)c2nc(OC[C@@]34CCCN3C[C@H](F)C4)nc3c2C[C@@H](C)[C@H](c2nc(N)cc(C)c2C(F)(F)F)C3)C1 (single isomer, unassigned) [Example 58]	100 to 500 nM
Cc1noc(/C=C/C(=O)N2CC[C@@H](N(C)c3nc(OC[C@@]45CCCN4C[C@H](F)C5)nc4c3CC(C)C(c3nc(N)cc(C)c3C(F)(F)F)C4)C2)n1 (some centres unmarked) [Example 115]	< 10 nM
CN(c1nc(OC[C@@]23CCCN2C[C@H](F)C3)nc2c(F)c(-c3cccc(Cl)c3C3CC3)ncc12)[C@@H]1CCN(C(=O)/C=C/CN2C3COCC2C3)C1 [Example 256]	10 to 100 nM
C=CC(=O)N1CC[C@@H](N(C)c2nc(OC[C@@]34CCCN3C[C@H](F)C4)nc3c(F)c(-c4cc(O)cc(Cl)c4C(F)(F)F)ncc23)C1 [Example 248]	< 10 nM
C=CC(=O)N1CC[C@@H](N(C)c2nc(OC[C@@]34CCCN3C[C@H](F)C4)nc3c(F)c(-c4cccc(Cl)c4C4CC4)ncc23)C1 [Example 252]	10 to 100 nM
Cc1cc(N)nc([C@H]2Cc3nc(OC[C@@]45CCCN4C[C@H](F)C5)nc(N(C)[C@@H]4CCN(C(=O)/C=C/c5nc(C(C)(C)O)no5)C4)c3C[C@@H]2C)c1C(F)(F)F [Example 94, (E)-1-((R)-3-(((6S,7S)-7-(6-amino-4-methyl-3-(trifluoromethyl)pyridin-2-yl)-2-(((2R,7aS)-2-fluorotetrahydro-1H-pyrrolizin-7a(5H)-yl)methoxy)-6-methyl-5,6,7,8-tetrahydroquinazolin-4-yl)(methyl)amino)pyrrolidin-1-yl)-3-(3-(2-hydroxypropan-2-yl)-1,2,4-oxadiazol-5-yl)prop-2-en-1-one]	≥ 500 nM
Cc1cc(N)nc(-c2ncc3c(N(C)CC4CN(C(=O)C#CCN5CCOCC5)C4)nc(OC[C@@]45CCCN4C[C@H](F)C5)nc3c2F)c1C(F)(F)F [Example 114]	10 to 100 nM
Cc1cc(/C=C/C(=O)N2CC[C@@H](N(C)c3nc(OC[C@@]45CCCN4C[C@H](F)C5)nc4c(F)c(-c5cccc(Cl)c5C5CC5)ncc34)C2)nc(C)n1 [Example 247]	100 to 500 nM
C=CC(=O)N1CC[C@@H](N(C)c2nc(OC[C@@]34CCCN3C[C@H](F)C4)nc3c(F)c(-c4nc(N)cc5cccc(Cl)c45)ncc23)C1 [Example 74, 1-((R)-3-((7-(3-amino-8-chloroisoquinolin-1-yl)-8-fluoro-2-(((2R,7aS)-2-fluorohexahydro-1H-pyrrolizin-7a-yl)methoxy)pyrido[4,3-d]pyrimidin-4-yl)(methyl)amino)pyrrolidin-1-yl)prop-2-en-1-one]	10 to 100 nM
Cc1cc(N)nc(N2CCc3c(nc(OC[C@@]45CCCN4C[C@H](F)C5)nc3N(C)[C@@H]3CCN(C#N)C3)C2)c1C(F)(F)F [Example 203]	≥ 500 nM
Cc1noc(/C=C/C(=O)N2CC[C@@H](N(C)c3nc(OC[C@@]45CCCN4C[C@H](F)C5)nc4c(F)c(-c5nc(N)cc(C)c5C(F)(F)F)ncc34)C2)n1 [Example 55, (E)-1-((R)-3-((7-(6-amino-4-methyl-3-(trifluoromethyl)pyridin-2-yl)-8-fluoro-2-(((2R,7aS)-2-fluorotetrahydro-1H-pyrrolizin-7a(5H)-yl)methoxy)pyrido[4,3-d]pyrimidin-4-yl)(methyl)amino)pyrrolidin-1-yl)-3-(3-methyl-1,2,4-oxadiazol-5-yl)prop-2-en-1-one]	< 10 nM
C=CC(=O)N1CC[C@@H](N(C)c2nc(OC[C@@]34CCCN3C[C@H](F)C4)nc3c(F)c(-c4cc(OC(F)F)ccc4Cl)ncc23)C1 [Example 186]	≥ 500 nM
C=CC(=O)N1CC[C@@H](N(C)c2nc(OCC34CCCN3CCC4)nc3c(F)c(-c4nc(N)cc5cccc(F)c45)ncc23)C1 [Example 75, (R)-1-(3-((7-(3-amino-8-fluoroisoquinolin-1-yl)-8-fluoro-2-((hexahydro-1H-pyrrolizin-7a-yl)methoxy)pyrido[4,3-d]pyrimidin-4-yl)(methyl)amino)pyrrolidin-1-yl)prop-2-en-1-one]	100 to 500 nM
C=CC(=O)N1CC[C@@H](N(C)c2nc(OC[C@@]34CCCN3C[C@H](F)C4)nc3c(F)c(-c4cc(C(F)F)cc(Cl)c4C4CC4)ncc23)C1 [Example 263]	≥ 500 nM
C=CC(=O)N1CC(CN(C)c2nc(OC[C@@]34CCCN3C[C@H](F)C4)nc3c(F)c(-c4nc(N)ccc4C(F)(F)F)ncc23)C1 [Example 54, 1-(3-(((7-(6-amino-3-(trifluoromethyl)pyridin-2-yl)-8-fluoro-2-(((2R,7aS)-2-fluorohexahydro-1H-pyrrolizin-7a-yl)methoxy)pyrido[4,3-d]pyrimidin-4-yl)(methyl)amino)methyl)azetidin-1-yl)prop-2-en-1-one]	100 to 500 nM
C=CC(=O)N1CC(CN(C)c2nc(OCC34CCCN3CCC4)nc3c2C[C@@H](C)[C@H](c2nc(N)cc(C)c2C(F)(F)F)C3)C1 [Example 199]	≥ 500 nM
Cc1nsc(/C=C/C(=O)N2CC[C@@H](N(C)c3nc(OC[C@@]45CCCN4C[C@H](F)C5)nc4c3C[C@@H](C)[C@H](c3nc(N)cc(C)c3C(F)(F)F)C4)C2)n1 [Example 158, (E)-1-((R)-3-(((6R,7R)-7-(6-amino-4-methyl-3-(trifluoromethyl)pyridin-2-yl)-2-(((2R,7aS)-2-fluorotetrahydro-1H-pyrrolizin-7a(5H)-yl)methoxy)-6-methyl-5,6,7,8-tetrahydroquinazolin-4-yl)(methyl)amino)pyrrolidin-1-yl)-3-(3-methyl-1,2,4-thiadiazol-5-yl)prop-2-en-1-one]	10 to 100 nM
Cc1noc(/C=C/C(=O)N2CC[C@@H](N(C)c3nc(OCC45CCCN4CCC5)nc4c3C[C@H](C)C(c3nc(N)cc(C)c3C(F)(F)F)C4)C2)n1 (stereo in doubt) [Example 163]	10 to 100 nM
Cc1ccc(N)nc1-c1ncc2c(N(C)[C@@H]3CCN(C(=O)/C=C/c4nc(C(C)C)no4)C3)nc(OC[C@@]34CCCN3C[C@H](F)C4)nc2c1F [Example 86]	10 to 100 nM
C=CC(=O)N1CC[C@@H](N(C)c2nc(OC[C@@]34CCCN3C[C@H](F)C4)nc3c(F)c(-c4cccc(F)c4C4CC4)ncc23)C1 [Example 220]	≥ 500 nM
C=CC(=O)N1CC[C@@H](N(C)c2nc(OC[C@@]34CCCN3C[C@H](F)C4)nc3c(F)c(-c4cccc(Cl)c4C4CC4)ncc23)[C@H]1C (single isomer, unassigned) [Example 77]	100 to 500 nM
Cc1nsc(/C=C/C(=O)N2CC(CN(C)c3nc(OC[C@@]45CCCN4C[C@H](F)C5)nc4c3C[C@H](C)[C@@H](c3nc(N)cc(C)c3C(F)(F)F)C4)C2)n1 (single isomer, unassigned) [Example 174]	≥ 500 nM
